Experimental data from US20100003217A1, “Compounds and Pharmaceutical Compositions for the Treatment of Viral Infections” (priority 2008, published 2010).

Assays:
[1] = Stability in rat liver microsomes; format: in vitro ADME; details: rat liver microsomes 1 mg/mL, 15 min, 10 μM
[2] = Stability in monkey liver microsomes; format: in vitro ADME; details: monkey liver microsomes 1 mg/mL, 15 min, 10 μM
[3] = Incubation with monkey liver cytosol; format: in vitro ADME; details: monkey cytosol 1 mg/mL, 2 hours, 10 μM
[4] = test system: pig liver esterase; assay: Incubation with pig liver esterase; format: in vitro ADME; details: Esterase 14 U, 60 min, 10 μM
[5] = Metabolite profile in rat urine; format: in vivo, male Sprague-Dawley rats; details: for Percent of Dose, Urine 0-24 h: after [14C]Compound 1
[6] = Excretion of administered dose in rat urine and feces; format: in vivo, male Sprague-Dawley rats; details: IV; 24 h after [14C]Compound 1
[7] = PO dose urine, 2 h collection, single animal (#20, Group 2B)
[8] = group 1C (IV dose) pooled urine, 1 h collection
[9] = group 1C (IV dose) pooled urine, 2 h collection
[10] = group 1C (IV dose) pooled urine, 6 h collection
[11] = group 1C (IV dose) pooled urine, 24 h collection

C[C@@]1(O)[C@H](O)[C@@H](COP(=O)(O)NCc2ccccc2)O[C@H]1n1cnc2c(=O)[nH]c(N)nc21 [Compound 2, [(2R)-2-methyl-β-D-ribofuranosyl]guanine-N-benzylaminyl-5′-monophosphate]
% Residual Compound 2 ([1]; NADPH): 0%
% Residual Compound 2 ([1]; No Cofactor): 0%
% Residual Compound 2 ([2]; NADPH): 19%
% Residual Compound 2 ([2]; No Cofactor): 0%
Residual compound following incubation with liver cytosol [3]: 0%
Residual compound following incubation with pig liver esterase [4]: 0%
Percent of Dose, Urine 0-24 h ([5]; IV): 0.76% of Dose
Percent of Dose, Urine 0-24 h ([5]; Oral): 0.001% of Dose
% AD (percent of administered dose) [5, 7]: 0.002 % AD
% HPLC (percent of HPLC peak area in the sample extract) [5, 7]: 1.81%
% of total urinary excretion, estimated ([5]; estimated profile, group 2C (PO dose) urine): 0.03%
% AD, estimated ([5]; estimated profile, group 2C (PO dose) urine, 2 h, from single animal HPLC distribution and mean % AD): 0.001 % AD
% HPLC (percent of HPLC peak area in the sample extract) ([5]; estimated profile, group 2C (PO dose) urine, 2 h, single animal % HPLC distribution): 1.81%
Total % AD, estimated ([5]; estimated profile, group 2C (PO dose) urine, total of all collections): 0.001 % AD
% AD (percent of administered dose) [5, 8]: 0.52 % AD
% HPLC (percent of HPLC peak area in the sample extract) [5, 8]: 2.29%
% AD (percent of administered dose) [5, 9]: 0.13 % AD
% HPLC (percent of HPLC peak area in the sample extract) [5, 9]: 2.57%
% AD (percent of administered dose) [5, 10]: 0.03 % AD
% HPLC (percent of HPLC peak area in the sample extract) [5, 10]: 1.40%
% AD (percent of administered dose) [5, 11]: 0.07 % AD
% HPLC (percent of HPLC peak area in the sample extract) [5, 11]: 0.45%
% of total urinary excretion ([5]; group 1C (IV dose) urine): 1.62%
Total % AD ([5]; group 1C (IV dose) urine, total of all collections): 0.76 % AD
Percent of Dose, Total (urine, feces and liver) [6]: 0.76% of Dose
